According to paper PMC8757511 (ACS Medicinal Chemistry Letters, 2021):
In brackets after ≈: the same amount, converted by molar mass.

Columns and labels:
[1] = tested on: M. tuberculosis strain, H37Ra (ATCC 25177); experiment: microbe, parasite or virus in culture; type: cell-based, Mycobacterium tuberculosis; settings: for MIC: Mycobacterium tuberculosis, ATCC25177|H37RA, read-out: Mtb MIC
PknB [2] = biological target: T1, PknB (Mycobacterium tuberculosis, UniProt P9WI81); experiment: biochemical; type: biochemical
Target sequence in this assay (P9WI81 1-331 limits assumed): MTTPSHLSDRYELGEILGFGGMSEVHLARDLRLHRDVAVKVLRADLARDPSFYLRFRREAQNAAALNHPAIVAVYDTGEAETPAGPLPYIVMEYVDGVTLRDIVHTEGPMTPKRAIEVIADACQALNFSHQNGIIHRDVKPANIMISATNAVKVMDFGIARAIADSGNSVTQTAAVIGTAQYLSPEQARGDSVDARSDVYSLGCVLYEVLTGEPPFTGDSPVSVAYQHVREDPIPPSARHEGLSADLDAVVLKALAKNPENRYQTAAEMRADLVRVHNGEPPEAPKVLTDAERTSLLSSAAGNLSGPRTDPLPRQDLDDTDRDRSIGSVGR

physchem = settings: pH 7.4, LogD7.4, pH 7.4
[3] = tested on: Zebrafish (Danio rerio) embryos; settings: 5 days
PknB [4] = biological target: T1, PknB; experiment: biochemical; type: binding
Target sequence in this assay (P9WI81 1-331 limits assumed): as above

Cdk2-Cyclin A = Cdk2-Cyclin A (Homo sapiens, UniProt P24941); experiment: biochemical; type: biochemical
[5] = tested on: 453 human kinases (403 wild-type and 50 mutant); type: binding; settings: 10 μM, KinomeSCAN
PknB [6] = biological target: T1, PknB; type: binding; settings: DiscoverX Kd
Target sequence in this assay (P9WI81 whole entry): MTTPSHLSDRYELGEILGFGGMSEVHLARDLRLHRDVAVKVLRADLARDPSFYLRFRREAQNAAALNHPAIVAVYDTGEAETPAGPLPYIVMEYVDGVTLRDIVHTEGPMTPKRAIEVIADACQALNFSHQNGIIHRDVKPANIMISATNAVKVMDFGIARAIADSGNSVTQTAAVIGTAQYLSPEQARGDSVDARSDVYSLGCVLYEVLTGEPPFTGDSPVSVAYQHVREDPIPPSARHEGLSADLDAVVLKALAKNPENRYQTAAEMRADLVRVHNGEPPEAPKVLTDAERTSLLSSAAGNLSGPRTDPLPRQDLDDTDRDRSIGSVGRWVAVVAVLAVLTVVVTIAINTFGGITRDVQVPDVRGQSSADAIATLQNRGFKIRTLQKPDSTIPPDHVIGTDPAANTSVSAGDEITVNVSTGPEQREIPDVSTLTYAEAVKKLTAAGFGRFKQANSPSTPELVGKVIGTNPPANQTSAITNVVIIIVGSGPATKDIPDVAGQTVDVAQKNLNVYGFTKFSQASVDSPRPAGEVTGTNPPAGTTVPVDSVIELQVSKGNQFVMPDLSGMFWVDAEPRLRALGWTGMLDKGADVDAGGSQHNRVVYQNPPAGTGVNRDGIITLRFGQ

[7] = tested on: THP-1 human macrophage cell line

CN1CCN(c2ccc(Nc3nccc(-c4ccncc4)n3)cc2C(F)(F)F)CC1 [Compound 5]
worse Mtb MIC than 1 [1]: 2–4 fold
MIC [1]: 50 µM (≈ 20.7 µg/mL)
IC50 (PknB [2]): 2100 nM
Ki (PknB [2]): 580 nM
logD (physchem): 3.57
% D. rario survival @ 5 μM [3]: 30%
Kd (PknB [4]): 78 nM
IC50 (Cdk2-Cyclin A): 4600 nM

Cc1ccc(-c2ccnc(Nc3ccc(N4CCN(C)CC4)c(C(F)(F)F)c3)n2)cc1 [Compound 12]
MIC [1]: ≤ 19 µM
% D. rario survival @ 5 μM [3]: 0%
reduction in Cdk2 biochemical inhibition relative to 1 (Cdk2-Cyclin A): greater than 28 fold

CN1CCN(c2ccc(Nc3nccc(-c4ccccc4)n3)cc2C(F)(F)F)CC1 [Compound 9]
selectivity score (S-score) at 1% of control (S(1)) [5]: 0.084
% D. rario survival @ 5 μM [3]: ~100%
reduction in Cdk2 biochemical inhibition relative to 1 (Cdk2-Cyclin A): greater than 28 fold

CN1CCN(c2ccc(Nc3nccc(-c4ccnc(Cl)c4)n3)cc2C(F)(F)F)CC1 [Compound 6]
% D. rario survival @ 5 μM [3]: ~100%

CN1CCN(c2ccc(Nc3nccc(-c4cccc([N+](=O)[O-])c4)n3)cc2C(F)(F)F)CC1 [Compound 19]
MIC [1]: ≤ 19 µM
selectivity score (S-score) at 1% of control (S(1)) [5]: 0.12
% D. rario survival @ 5 μM [3]: 0%
affinity for PknB vs GSK3β, mTOR, and Pim1 (PknB [6]): > 100 fold

CN1CCN(c2ccc(Nc3nccc(-c4cccnc4)n3)cc2C(F)(F)F)CC1 [Compound 4]
worse Mtb MIC than 1 [1]: 2–4 fold

CN1CCN(c2ccc(Nc3nccc(-c4ccc(Cl)cc4)n3)cc2C(F)(F)F)CC1 [Compound 11]
reduction in Cdk2 biochemical inhibition relative to 1 (Cdk2-Cyclin A): greater than 28 fold

CN1CCN(c2ccc(Nc3nccc(-c4ccc5ccccc5c4)n3)cc2C(F)(F)F)CC1 [Compound 20]
lower MIC than inhibitor 19 [1]: 2 fold
loss in PknB activity relative to 19 (PknB [2]): 3 fold
% D. rario survival @ 5 μM [3]: ~100%
improvement in THP-1 cytotoxicity relative to 1 ([7]; relative to 1): > 60 fold

CN1CCN(c2ccc(Nc3nccc(-c4cccc(Cl)c4)n3)cc2C(F)(F)F)CC1 [Compound 16]
MIC [1]: ≤ 19 µM
improvement in cytotoxicity over 1 ([7]; THP-1, relative to 1): > 2 log unit
reduction in Cdk2 biochemical inhibition relative to 1 (Cdk2-Cyclin A): greater than 28 fold

CNc1cc(-c2ccnc(Nc3ccc(N4CCN(C)CC4)c(C(F)(F)F)c3)n2)ccn1 [Compound 8]
loss of PknB activity relative to 1 (PknB [2]; relative to 1): 6 fold
reduction in Cdk2 biochemical inhibition relative to 1 (Cdk2-Cyclin A): 28 fold
